Data set [1] deals with Streptococcus. Nature of the data set: GAS UMAA2166 growth inhibition – luminescence, BacTiterGlo, counter-screen for streptokinase expression inhibitor project, dose response (AID 1915).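 Note: potency for reduction of bacterial viability or growth.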 The class given is functional, organism-based.
The target of data set [2] is T1, Streptokinase A (Streptococcus pyogenes serotype M1, UniProt P10520).
T1 sequence (P10520 whole entry): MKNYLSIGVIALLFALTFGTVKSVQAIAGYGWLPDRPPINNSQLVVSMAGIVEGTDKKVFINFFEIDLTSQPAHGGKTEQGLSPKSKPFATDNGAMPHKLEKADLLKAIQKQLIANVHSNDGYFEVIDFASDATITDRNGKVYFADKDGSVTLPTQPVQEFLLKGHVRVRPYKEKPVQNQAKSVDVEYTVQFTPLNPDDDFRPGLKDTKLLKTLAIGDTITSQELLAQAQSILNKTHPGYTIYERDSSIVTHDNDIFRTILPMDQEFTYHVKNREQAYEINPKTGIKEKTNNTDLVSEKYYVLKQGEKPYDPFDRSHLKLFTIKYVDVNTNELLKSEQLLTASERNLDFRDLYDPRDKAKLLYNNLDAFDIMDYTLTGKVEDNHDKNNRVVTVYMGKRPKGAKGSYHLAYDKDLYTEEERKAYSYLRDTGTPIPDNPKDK
As to the kind of experiment: viability-normalized secreted streptokinase activity reduction – plasminogen activation absorbance, OD405, dose response (AID 1914).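 Note: secreted streptokinase activity via plasminogen activation per viability signal from cell pellet.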 It is filed as functional, Streptococcus pyogenes M1 GAS.

The test system of data set [3] is Streptococcus sp. 'group A'. Nature of the data set: Streptococcus pyogenes SK(-)GAS viability under kanamycin – luminescence, BacTiterGlo, confirmation, counter-screen for streptokinase expression inhibitor project, dose response (AID 1900). It is filed as functional, organism-based. (A counterscreen serves to expose hits that act by an unwanted route or on another target.)

Data set [4] has as its target T2, Cytochrome P450 1A2 (Homo sapiens, UniProt P05177).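 Note: PubChem cytochrome P450 panel assay, CYP1A2 panel member.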
T2 sequence (P05177 whole entry): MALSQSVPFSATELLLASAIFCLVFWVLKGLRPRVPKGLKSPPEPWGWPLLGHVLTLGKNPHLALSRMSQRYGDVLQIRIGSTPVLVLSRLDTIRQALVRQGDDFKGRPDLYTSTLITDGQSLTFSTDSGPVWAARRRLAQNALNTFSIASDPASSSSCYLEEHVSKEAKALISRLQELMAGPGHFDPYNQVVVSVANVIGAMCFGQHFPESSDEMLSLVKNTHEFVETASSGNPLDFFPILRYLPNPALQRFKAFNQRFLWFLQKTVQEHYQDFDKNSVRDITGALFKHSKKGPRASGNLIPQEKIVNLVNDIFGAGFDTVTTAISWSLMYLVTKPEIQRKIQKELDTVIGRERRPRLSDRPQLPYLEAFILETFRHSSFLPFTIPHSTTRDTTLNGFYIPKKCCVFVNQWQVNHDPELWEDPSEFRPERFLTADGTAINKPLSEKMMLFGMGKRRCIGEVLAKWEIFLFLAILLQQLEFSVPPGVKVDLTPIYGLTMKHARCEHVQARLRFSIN

Data set [5] deals with Cytochrome P450 2C19 (Homo sapiens, UniProt P33261). Nature of the data set: Cytochrome panel assay with activity outcomes. Panel member name: p450-cyp2c19 Compounds with AC50 equal or less than 10 uM are considered active. The class given is functional.
Cytochrome P450 2C19, sequence (P33261 whole entry): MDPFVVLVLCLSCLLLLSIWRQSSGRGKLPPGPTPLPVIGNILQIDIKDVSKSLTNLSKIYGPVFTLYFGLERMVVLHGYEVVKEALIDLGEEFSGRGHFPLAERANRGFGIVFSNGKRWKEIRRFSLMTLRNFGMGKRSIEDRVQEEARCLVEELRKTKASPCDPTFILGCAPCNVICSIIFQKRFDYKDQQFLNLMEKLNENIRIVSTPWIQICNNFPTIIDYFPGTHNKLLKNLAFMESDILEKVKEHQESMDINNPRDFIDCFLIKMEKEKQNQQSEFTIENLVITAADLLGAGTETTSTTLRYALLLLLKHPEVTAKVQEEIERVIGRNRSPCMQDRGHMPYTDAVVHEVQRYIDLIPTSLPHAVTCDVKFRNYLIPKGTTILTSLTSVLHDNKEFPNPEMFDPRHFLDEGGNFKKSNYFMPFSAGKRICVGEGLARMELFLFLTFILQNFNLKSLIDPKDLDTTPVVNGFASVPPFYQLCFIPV
Data set [6] addresses T3, Rac GTPase-activating protein 1 (Homo sapiens, UniProt Q9H0H5).
T3 sequence (Q9H0H5 whole entry): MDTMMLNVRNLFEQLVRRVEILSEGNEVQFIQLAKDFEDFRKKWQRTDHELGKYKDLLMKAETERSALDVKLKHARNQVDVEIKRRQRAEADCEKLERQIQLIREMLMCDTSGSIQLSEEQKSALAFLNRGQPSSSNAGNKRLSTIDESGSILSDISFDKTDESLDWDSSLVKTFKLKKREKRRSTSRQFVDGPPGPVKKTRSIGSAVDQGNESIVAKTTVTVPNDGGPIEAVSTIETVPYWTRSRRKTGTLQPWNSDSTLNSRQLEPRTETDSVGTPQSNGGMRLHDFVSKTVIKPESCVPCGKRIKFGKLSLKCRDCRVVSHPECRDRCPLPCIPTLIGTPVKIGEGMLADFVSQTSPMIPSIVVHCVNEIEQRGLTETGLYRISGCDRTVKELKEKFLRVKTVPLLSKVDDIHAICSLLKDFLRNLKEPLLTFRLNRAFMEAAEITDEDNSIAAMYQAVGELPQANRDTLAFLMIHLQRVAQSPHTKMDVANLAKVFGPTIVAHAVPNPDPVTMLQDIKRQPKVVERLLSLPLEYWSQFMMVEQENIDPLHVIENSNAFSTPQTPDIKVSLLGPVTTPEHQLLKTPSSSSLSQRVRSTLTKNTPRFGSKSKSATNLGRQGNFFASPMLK
As to the kind of experiment: blockers of MgcRacGAP-driven Rac1 GTP hydrolysis – biochemical, ADP Hunter fluorescence, primary and confirmatory, confirmation (AID 624330). The class given is functional.

Data set [7] has as its target Cytochrome P450 2C9 (Homo sapiens, UniProt P11712).
Data set [8] addresses Cytochrome P450 3A4 (Homo sapiens, UniProt P08684).

The text below walks through data of ChEMBL document CHEMBL1201862, “PubChem BioAssay data set” (2004).

The term EC50 denotes the concentration at which the effect is half-maximal. Usually AC50 stands for the midpoint of the concentration-response curve, whichever way the signal moves. What is called IC50 is the concentration that inhibits the measured activity by half.

Several values for one entry are separate records, joined by “and”; a condition that tells them apart may be missing. Equal values may be shown once. Activity calls are given as the source filed them.

Cytochrome P450 2C9, sequence (P11712 whole entry): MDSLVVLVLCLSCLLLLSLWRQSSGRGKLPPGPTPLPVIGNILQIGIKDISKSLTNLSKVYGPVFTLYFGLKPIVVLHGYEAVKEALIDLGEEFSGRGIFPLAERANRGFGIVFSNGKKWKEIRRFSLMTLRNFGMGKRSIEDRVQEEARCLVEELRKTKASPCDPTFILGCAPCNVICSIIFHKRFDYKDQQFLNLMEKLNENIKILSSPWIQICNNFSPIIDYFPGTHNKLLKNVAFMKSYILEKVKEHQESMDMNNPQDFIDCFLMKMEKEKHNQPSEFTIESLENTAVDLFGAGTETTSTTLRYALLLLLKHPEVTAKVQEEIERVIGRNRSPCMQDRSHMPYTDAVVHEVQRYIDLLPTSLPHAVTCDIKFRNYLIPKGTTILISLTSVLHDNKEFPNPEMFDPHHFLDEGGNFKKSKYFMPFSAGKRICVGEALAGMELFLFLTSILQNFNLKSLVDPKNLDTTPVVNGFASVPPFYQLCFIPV
Cytochrome P450 3A4, sequence (P08684 whole entry): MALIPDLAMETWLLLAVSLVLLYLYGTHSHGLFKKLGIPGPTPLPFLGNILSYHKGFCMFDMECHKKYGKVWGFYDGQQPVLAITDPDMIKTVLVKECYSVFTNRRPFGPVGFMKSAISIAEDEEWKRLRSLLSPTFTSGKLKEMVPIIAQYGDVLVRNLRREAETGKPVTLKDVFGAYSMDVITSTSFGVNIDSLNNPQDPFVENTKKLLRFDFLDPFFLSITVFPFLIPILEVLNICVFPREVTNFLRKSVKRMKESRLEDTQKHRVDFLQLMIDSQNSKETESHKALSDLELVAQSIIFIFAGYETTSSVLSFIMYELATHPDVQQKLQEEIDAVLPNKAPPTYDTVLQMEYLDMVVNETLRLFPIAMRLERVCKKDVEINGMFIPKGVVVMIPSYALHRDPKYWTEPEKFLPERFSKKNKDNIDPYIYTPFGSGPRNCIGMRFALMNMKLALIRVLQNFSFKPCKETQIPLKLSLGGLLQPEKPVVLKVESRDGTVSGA

For the compound `O=C(Nc1ccc(Br)cc1C(=O)O)c1ccc2c(c1)C(=O)N(Cc1ccccc1)C2=O`, the EC50 was 18.3 µM (active) in data set [1], 17.5 µM (inconclusive) in data set [2] and 0.589 µM (active) in data set [3]. As for `COc1ccc(CNC(=O)c2cnc(C)cn2)cc1`, the AC50 in data set [4] was 12.6 µM (inconclusive). As for `CN(C)/C(CN1CCOCC1)=C1\N=C(c2ccccc2)OC1=O`, in data set [5] (read-out: AC50), the AC50 is 7.94 µM (inconclusive).

Regarding `CNC[C@@H](SC)c1ccc(O)c(O)c1`, the AC50 in data set [4] was 6.31 µM (inconclusive).

For `Cc1sc2ncnc(Nc3ccc(O)cc3)c2c1C`, in data set [6], the IC50 is 39.4 µM (active). On to `CCOc1ccc(NC(=S)NC(=O)/C=C/c2ccc(OC)c(OC)c2)c([N+](=O)[O-])c1`, for which the AC50 in data set [7] was 14.1 µM (inconclusive); in data set [4] it was 15.8 µM (inconclusive). As to `O=C(c1ccccc1)c1ccc2n1CC[C@H]2C(=O)O`, the half-maximal activity concentration (AC50) in data set [4] is 25.1 µM (inconclusive) and 15.8 µM (inconclusive). In the case of `Cc1nc(NS(=O)(=O)c2ccc(Cl)s2)c2c3c(sc2n1)CCCC3`, the EC50 in data set [1] was 14.9 µM (active); in data set [2], 21.5 µM (inconclusive); in data set [3], 4.37 µM (active). `Cc1ccc(S(=O)(=O)N2CCC(C(=O)O)(c3ccccc3)CC2)cc1`: the AC50 result in data set [5] was “inconclusive”. In the case of `CC(C)CN1CCCC2(CCN(C(=O)c3csnn3)CC2)C1`, in data set [8], the AC50 is 31.6 µM (inconclusive).

Take `Cc1c(C(=O)O)oc2ccc(S(=O)(=O)NCc3ccc4c(c3)OCO4)cc12`: the concentration at half-maximal activity (AC50) in data set [7] is 3.55 µM (inconclusive); in data set [4], 14.1 µM (inconclusive). For the compound `O=C(c1cccc(Cl)c1)N1CCN(C2CCCCC2)CC1`, in data set [6], the half-maximal inhibitory concentration (IC50) was 300 µM (active). `COc1cccc(Cn2c(=O)c(CCc3ccccc3)nc3cnc(OC)nc32)c1`: the half-maximal activity concentration (AC50) in data set [4] was 12.6 µM (inconclusive).

Regarding `Cc1ccc(Nc2nnc(S)s2)cc1F`, in data set [6], the IC50 was 54.5 µM (active). For `COC(=O)c1ccc(C(=O)OC)c(NC(=O)CSCc2ccc(Br)cc2)c1`, the AC50 in data set [5] (read-out: AC50) was 2.24 µM (inconclusive). On to `COc1ccccc1COCC(O)CNCC1(N2CCCCC2)CCCCC1` (configuration not stated), for which, in data set [6], the IC50 is 121 µM (active).

As for `C[C@@H](C(=O)NCc1ccc(S(C)(=O)=O)cc1)[C@@H]1C[C@@]1(C)[C@@H](NC(=O)OCc1ccccc1)c1ccccc1`, the concentration at half-maximal activity (AC50) in data set [4] was 15.8 µM (inconclusive).

Take `CC(C)(C)C(=O)NC(c1ccc(Cl)cc1)[C@]1(C)C[C@H]1C1CCCCC1` (some centres not stated): the AC50 in data set [5] (read-out: AC50) is 7.94 µM (inconclusive). For the compound `CN(Cc1ccccc1)Cn1ccnc1`, the AC50 in data set [8] is 3.98 µM (inconclusive). With `CCOC(=O)CC(NC(=O)c1ccco1)c1ccc(OC)cc1` (configuration not stated), the figures for the AC50 in data set [7] and in data set [4] were 15.8 µM (inconclusive) and 25.1 µM (inconclusive), respectively. For the compound `CC(C)(C)OC(=O)N1CCCC1C(=O)NCCc1ccccc1` (configuration not stated), the concentration at half-maximal activity (AC50) in data set [8] is 25.1 µM (inconclusive).

As to `Cc1ccccc1NC1=C(C(=O)c2ccccc2)N(C)S(=O)(=O)c2ccccc21`, the concentration at half-maximal activity (AC50) in data set [8] was 3.16 µM (inconclusive). `O=C(Nc1ccc(F)cc1F)c1cccn1-c1ncc(C(F)(F)F)cc1Cl`: the half-maximal activity concentration (AC50) in data set [7] was 39.8 µM (inconclusive); in data set [4] it was 14.1 µM (inconclusive); in data set [8] it was 28.2 µM (inconclusive). Consider `C/C(=C(/CCO)SSC[C@@H]1CCCO1)N(C=O)Cc1cnc(C)nc1N`, for which the AC50 in data set [8] was 10 µM (inconclusive). Consider `O=C(CSCc1ccc(Cl)cc1)Nc1nccs1`, for which the concentration at half-maximal activity (AC50) in data set [7] is 14.1 µM (inconclusive); in data set [8] it was 3.55 µM (inconclusive). In the case of `Cn1c(C(=O)N2CCN(c3ccc([N+](=O)[O-])cc3)CC2)cc2c(O)nc3ccccc3c21`, the results for the EC50 in data set [1], in data set [2] and in data set [3] were > 150 µM (not active), > 150 µM (not active) and 5.33 µM (active), respectively.

As for `CCCCc1ccc(-c2nc(NC(=O)C3C4CCC(O4)C3C(=O)O)sc2C)cc1` (configuration not stated), the AC50 in data set [7] is 3.55 µM (inconclusive); in data set [8] it was 14.1 µM (inconclusive). On to `Cc1ccccc1CN1CCCN(Cc2ccc(Cl)cc2)S1(=O)=O`, for which the EC50 in data set [1] was > 150 µM (not active); in data set [2] it was 23.3 µM (active); in data set [3], 10.1 µM (active). Regarding `O=C(CSc1nnc(CNC(=O)c2ccc(F)cc2)o1)NCc1ccccc1Cl`, the EC50 in data set [1], in data set [2] and in data set [3] was > 150 µM (not active) each time. As for `O=c1c([N+](=O)[O-])cccn1Cc1ccc(F)cc1Cl`, the concentration giving a half-maximal response (EC50) in data set [1] is 7.88 µM (active); in data set [2] it was > 150 µM (not active); in data set [3], 3.27 µM (active). On to `O=[N+]([O-])c1cccc(/C=N/Nc2cc(Cl)nc(-c3ccccc3)n2)c1`, for which the AC50 in data set [8] is 17.8 µM (inconclusive).

With `C[C@@H](COc1ccccc1)N(CCCl)Cc1ccccc1`, the AC50 in data set [7] is 31.6 µM (inconclusive) and 12.6 µM (inconclusive); in data set [4] it was 12.6 µM (inconclusive). As for `CCOC(=O)c1c(CN(C)C)n(-c2ccc(C)cc2)c2cc(Br)c(O)cc12`, the EC50 in data set [1] was > 150 µM (not active); in data set [2], 21.9 µM (active); in data set [3], 8.71 µM (active). In the case of `COc1cc(CN2CCN(c3ccccc3F)CC2)cc(OC)c1O`, the half-maximal inhibitory concentration (IC50) in data set [6] was 143 µM (active).

`N#Cc1cccc(NC(=O)N2CCCC3(CCN(C(=O)c4ccco4)CC3)C2)c1`: the AC50 in data set [4] was 15.8 µM (inconclusive). Consider `COc1cccc(C(C#N)N2N=C(C)CC2(C)C)c1O` (configuration not stated), for which the concentration at half-maximal activity (AC50) in data set [5] (read-out: AC50) was 2.24 µM (inconclusive). In the case of `COc1cc2c(cc1OC)[C@@]13CCN4C=C5CCO[C@H]6CC(=O)N2[C@@H]1[C@@H]6[C@H]5C[C@H]43`, the half-maximal activity concentration (AC50) in data set [4] is 5.01 µM (inconclusive). For the compound `O=C(O)c1c2c(nc3ccccc13)/C(=C/c1ccc(O)cc1)CCC2`, the IC50 in data set [6] is 46.6 µM (active). With `c1ccc(-c2nnc3n2NC(c2ccc4c(c2)OCO4)S3)cc1` (configuration not stated), the half-maximal inhibitory concentration (IC50) in data set [6] was 153 µM (active). Regarding `Cc1ccc2c(c1)/C(=N/OC(=O)c1ccc(F)cc1)CCS2`, the AC50 in data set [4] is 0.501 µM (inconclusive). In the case of `COc1cccc([C@H](O)Cn2cc(-c3cccc(CON=C(C)C)c3)nn2)c1`, in data set [8], the AC50 is 3.98 µM (inconclusive). For `CCC(C(=O)NCCCN1CCCC1=O)n1c2ccccc2c2nc(=O)cc(C)n21` (configuration not stated), the EC50 in data set [1], in data set [2] and in data set [3] was > 150 µM (not active) each time.

Consider `CCOc1cc(CNc2ccc(N3CCOCC3)cc2)cc(Br)c1OCC`, for which, in data set [6], the IC50 was 19.6 µM (active). `CCOc1ccc2c(c1)C(C)=CC(C)(C)N2` [E324]: the AC50 in data set [8] was 12.6 µM (inconclusive). `COc1ccc(NC(=O)Cn2nnc(C(=O)NCc3cccs3)c2N)cc1Cl`: the EC50 in data set [1] is > 150 µM (not active); in data set [2] it was > 150 µM (not active); in data set [3], 67.2 µM (active).

As to `CCCC1(C(=O)OC)C=C2C(=C(C)C(=O)C2C)CN1` (configuration not stated), the AC50 in data set [8] was 39.8 µM (inconclusive).
